*1 amine or outer side, *2 acyl side, *3 side chain or, on linkers, in order; H or OH if unused. Where a SMILES comes first, the peptide text is derived from it. γGlu = O=C(O)[CH](CCC(=O)[*:2])N[*:1]

One may read the EC50 as the midpoint of the concentration-response curve.

One assay deals with T1, human CaSR (wild type) (Homo sapiens, UniProt P41180).
T1 construct: expressed in transfected cells; host or cells: PEAKrapid cells (ATCC), pcDNA 3.1, transient transfection
T1 sequence (P41180 20-1078): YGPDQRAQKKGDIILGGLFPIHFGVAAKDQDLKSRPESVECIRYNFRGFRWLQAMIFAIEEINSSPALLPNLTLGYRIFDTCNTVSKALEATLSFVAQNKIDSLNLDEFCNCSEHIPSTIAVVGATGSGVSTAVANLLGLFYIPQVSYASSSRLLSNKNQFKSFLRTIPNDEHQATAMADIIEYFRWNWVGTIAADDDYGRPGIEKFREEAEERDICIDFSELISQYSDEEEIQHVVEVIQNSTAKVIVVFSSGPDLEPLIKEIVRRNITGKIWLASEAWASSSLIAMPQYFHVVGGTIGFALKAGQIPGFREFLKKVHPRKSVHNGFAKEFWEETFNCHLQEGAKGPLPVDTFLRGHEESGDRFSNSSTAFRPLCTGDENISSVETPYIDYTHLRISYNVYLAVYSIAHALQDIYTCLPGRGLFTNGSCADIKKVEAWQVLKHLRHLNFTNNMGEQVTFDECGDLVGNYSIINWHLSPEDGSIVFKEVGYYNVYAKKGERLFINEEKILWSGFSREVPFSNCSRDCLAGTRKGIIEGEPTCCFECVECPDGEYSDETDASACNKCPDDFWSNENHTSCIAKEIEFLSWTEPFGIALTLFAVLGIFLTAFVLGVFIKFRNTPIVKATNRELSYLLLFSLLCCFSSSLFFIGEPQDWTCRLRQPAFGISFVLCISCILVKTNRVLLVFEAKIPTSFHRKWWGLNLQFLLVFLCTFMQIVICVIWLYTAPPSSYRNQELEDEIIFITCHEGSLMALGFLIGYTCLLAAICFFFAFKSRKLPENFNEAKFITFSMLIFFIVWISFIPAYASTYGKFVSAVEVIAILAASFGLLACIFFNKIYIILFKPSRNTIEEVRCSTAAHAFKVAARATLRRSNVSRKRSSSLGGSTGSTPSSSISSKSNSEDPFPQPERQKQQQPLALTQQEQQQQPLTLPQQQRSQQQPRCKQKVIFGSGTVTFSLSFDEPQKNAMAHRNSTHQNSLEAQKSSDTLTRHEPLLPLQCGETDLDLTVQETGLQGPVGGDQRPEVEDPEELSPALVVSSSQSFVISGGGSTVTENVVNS
In words: Calcium mobilization assay, wild-type CaSR in PEAKrapid cells. Format: cell-based. To be noted: WT CaSR; for EC50: PEAKrapid cells, 1 mM CaCl2 in assay buffer, mean ± s.e.m., n = 3; for Response in calcium mobilization assay: in words. The procedure:
The CaSR receptor responsiveness was assessed by using PEAK^rapid cells (ATCC, Manassas, VA, USA) transiently transfected with the receptor DNA by the method reported by Kitajima et al.[6]. Briefly, human CaSR or its mutant cDNA with a signal sequence (MAFYSCCWVLLALTWHTSA) followed by FLAG-tag (DYKDDDDK) were inserted into pcDNA 3.1 expression vectors in Opti-MEM I medium (Thermo Fisher Scientific), mixed with FuGENE 6 (Roche), and poured onto PEAK^rapid cells grown at a submaximal concentration. After culturing for 24 h in 96-well plates, the cells were incubated with 5 µM Calcium-5 solution (Calcium-5 assay kit, Molecular Devices) for 45–60 min, and measurements were performed using a plate reader (FDSS/µCELL, Hamamatsu Photonics, Shizuoka, Japan) and its associated software. The activation of CaSR expressed in cells increases the intracellular Ca^2+ concentration, which is measured using a Ca^2+-sensitive dye. The binding of Ca^2+ to the Ca^2+-sensitive dye increases dye fluorescence, with excitation at 485 nm and emission at 525 nm. Test compounds were dissolved and administered in the assay buffer (146 mM NaCl, 1 mM MgSO4, 20 mM HEPES, 1 mM CaCl2, 2.5 mM probenecid, and 1.39 mM glucose, pH 7.4). Transiently transfected cells were challenged with compounds and compared with the vehicle alone and/or mock-transfected cells. The concentration dependence of the fluorescence intensity (influx of Ca^2+) was analyzed using the plate reader at 1 s intervals for 180 s. For the dose–response curve calculations, peak fluorescence responses after the addition of compounds were corrected for, normalized to the background fluorescence (ΔF/F = –F − F0)/F0), and baseline noise was subtracted. Dose–response curves were calculated by non-linear regression using GraphPad PRISM 8.0.
On the technique in general: A change in cytosolic calcium serves as a functional read-out for many receptors and channels.

Another assay has as its system CaSR. Also noted: method as in PMID 19892707, PMID 27477658. Conditions: screening of dipeptides and tripeptides, previous work; cited from earlier work.

As to `N[C@@H](Cc1ccc(O)cc1)C(=O)O` [L-Tyr, L-tyrosine], on human CaSR (wild type), the EC50 was found to be 3900 ± 1100 µM and the “Response in calcium mobilization assay” value was “weak response”.

`CC(C)[C@H](NC(=O)CC[C@H](N)C(=O)O)C(=O)O` [γ-EV, γ-glutamyl-valine]: on human CaSR (wild type), the 50% effective concentration (EC50) was 10.71 ± 0.1 µM and the “Response in calcium mobilization assay” value was “weak response”.

`CC(C)C(NC(=O)CCC(N)C(=O)O)C(=O)NCC(=O)O` (stereo not drawn) [γ-EVG, γ-glutamyl-valyl-glycine] (γGlu-Val-Gly-OH; configuration not given here): the EC50 at human CaSR (wild type) was determined as 0.18 ± 0.1 µM. Besides, in the assay on CaSR, the CaSR activation potency entry is on record as “most potent activity among those tested”.

For `[Ca+2].[Cl-].[Cl-]` [CaCl2], at human CaSR (wild type), the EC50 worked out at 190 ± 400 µM.

Values taken from paper PMC11785791, “Cryo-EM structure of the calcium-sensing receptor complexed with the kokumi substance γ-glutamyl-valyl-glycine” (Scientific Reports, 2025).
